Where “and” joins values, the source holds several entries; their conditions need not be identical. Identical values can stand only once. Like-named read-outs stand apart in the source and are kept apart here.

Here are results for nine compounds from patent US12642271B2, “Active compound combinations comprising a (thio)carboxamide derivative and a fungicidal compound” (Bayer CropScience Aktiengesellschaft, priority 2011, dated 2026).

In test [1] the test system is Sphaerotheca fuliginea. Kind of test: Sphaerotheca test (cucumbers)/preventive. The test is classed as in vivo. The settings on record: Podosphaera fuliginea, 168 h, read-out: Efficacy in % found; for pest or weed control at 0.5 ppm: 0.5 ppm a.i.; for pest or weed control at 0.25 ppm: 0.25 ppm a.i.
The test system of test [2] is Alternaria solani. Put plainly: Alternaria test (tomatoes)/preventive. The test is classed as in vivo.
Test [3] has as its system Leptosphaeria nodorum. Kind of test: Leptosphaeria nodorum test (wheat)/preventive. The settings on record: for pest or weed control at 40 ppm: application rate 40 ppm. The test is classed as in vivo.
The subject of test [4] is Fusarium nivale (var. majus). Kind of test: Fusarium nivale (var. majus)-test (wheat)/preventive. The settings on record: Microdochium nivale, in Triticum aestivum, 120 h; for pest or weed control at 10 ppm: 10 ppm a.i.; for pest or weed control at 40 ppm: 40 ppm a.i.
Protocol: After the spray coating has been dried, the plants are slightly injured by using a sandblast and afterwards they are sprayed with a conidia suspension of Fusarium nivale (var. majus).
The plants are placed in the greenhouse under a translucent incubation cabinet at a temperature of approximately 10° C. and a relative atmospheric humidity of approximately 100%.
The test is evaluated 5 days after the inoculation.
Test [5] deals with Botrytis cinerea. Kind of test: Botrytis test (beans)/preventive.
Protocol: After the spray coating has dried on, 2 small pieces of agar covered with growth of Botrytis cinerea are placed on each leaf. The inoculated plants are placed in a darkened chamber at 20° C. and a relative atmospheric humidity of 100%. 2 days after the inoculation, the size of the lesions on the leaves is evaluated.
Test [6] has as its system Blumeria graminis f.sp. hordei. Put plainly: Blumeria test (barley)/preventive. The test is classed as in vivo. The settings on record: for pest or weed control at 10 ppm: 10 ppm a.i.
The test system of test [7] is Phytophthora infestans. Kind of test: whole plant or invertebrate. The class given is in vivo. The conditions noted are these: Phytophthora infestans, 72 h, read-out: Efficacy in % found.
Test [8] concerns Septoria tritici. Kind of test: Septoria tritici-test (wheat)/preventive. The test is classed as in vivo. The settings on record: Zymoseptoria tritici, 504 h, preventive, evaluated 21 days after inoculation, read-out: Efficacy in % found; for pest or weed control at 10 ppm: application rate 10 ppm a.i.
For test [9], the system named is Puccinia triticina. Put plainly: Puccinia triticina-test (wheat)/preventive. The class given is in vivo. The settings on record: preventive, evaluated 8 days after inoculation; for pest or weed control at 40 ppm: application rate 40 ppm a.i.
Test [10] deals with Venturia inaequalis. Put plainly: Venturia test (apples)/preventive. The settings on record: for pest or weed control at 0.5 ppm: 0.5 ppm a.i.
Protocol: After the spray coating has dried on, the plants are inoculated with an aqueous conidia suspension of the causal agent of apple scab (Venturia inaequalis) and then remain for 1 day in an incubation cabinet at approximately 20° C. and a relative atmospheric humidity of 100%.
The plants are then placed in a greenhouse at approximately 21° C. and a relative atmospheric humidity of approximately 90%.
The test is evaluated 10 days after the inoculation.
Test [11] deals with Pyrenophora teres. Put plainly: Pyrenophora teres-test (barley)/preventive. The conditions noted are these: preventive, evaluated 8 days after inoculation. The test is classed as in vivo.
Test [12] has as its system Fusarium graminearum. The test is classed as in vivo.
Where [13] appears, read: Parastagonospora nodorum, 192 h, application rate 10 ppm, wheat, preventive, evaluated 8 days after inoculation, read-out: Efficacy in % found.
Where [14] appears, read: Parastagonospora nodorum, 192 h, wheat, preventive, evaluated 8 days after inoculation, read-out: Efficacy in % found.
[15] abbreviates: read-out: Efficacy in % found, Table 8e.
The mark [16] stands for this setting: Puccinia triticina, 192 h, application rate 10 ppm a.i., read-out: Efficacy in % found.
[17] abbreviates: Puccinia triticina, 192 h, read-out: Efficacy in % found.
Setting [18] is: Alternaria solani, 72 h, Table 3b, read-out: Efficacy in % found.
Where [19] appears, read: Venturia inaequalis, 240 h, read-out: Efficacy in % found, Table 2b, 0.25 ppm a.i.

Take `CC(C)c1ccc(Cl)cc1CN(C(=O)c1c(C(F)F)nn(C)c1F)C1CC1` [A5, N-(5-chloro-2-isopropylbenzyl)-N-cyclopropyl-3-(difluoromethyl)-5-fluoro-1-methyl-1H-pyrazole-4-carboxamide]: the pest or weed control at 0.5 ppm was 0% in test [1] (Table 4d); 6% in test [2] (Alternaria solani, 72 h, Table 3e, read-out: Efficacy in % found); 0% in [2] (Alternaria solani, 72 h, Table 3d, read-out: Efficacy in % found); 0% in test [7]; 15% in test [10] (Venturia inaequalis, 240 h, read-out: Efficacy in % found, Table 2e); 0% in test [10] (Venturia inaequalis, 240 h, read-out: Efficacy in % found, Table 2d). The pest or weed control at 10 ppm was found to be 20% in [3] (setting [13]), 0% in test [4] (setting [15]) and 44% in test [9] (setting [16]). Further, the pest or weed control at 40 ppm in test [3] (setting [14]) was 60%; in [4] (setting [15]) it was 0%; in test [4] (read-out: Efficacy in % found, Table 8f), 38%; in test [6] (Blumeria graminis, 168 h, Table 6f, 40 ppm a.i., read-out: Efficacy in % found), 25%; in [8] (application rate 40 ppm a.i.), 93%; in [9] (setting [17]), 94%. Besides, the “Efficacy in % found” value in [5] (Table 5b, 0.5 ppm a.i.) is given as 16%; in test [5] (Table 5b, 2 ppm a.i.), 72%. Besides, the pest or weed control at 2 ppm in [10] (Venturia inaequalis, 240 h, read-out: Efficacy in % found, Table 2e, 2 ppm a.i.) turned out to be 57%. Further, the pest or weed control at 0.25 ppm in test [10] (Venturia inaequalis, 240 h, read-out: Efficacy in % found, Table 2d, 0.25 ppm a.i.) amounted to 0%.

For `Cn1nc(C(F)F)c(C(=O)N(Cc2cc(Cl)ccc2C(F)(F)F)C2CC2)c1F` [A15, N-[5-chloro-2-(trifluoromethyl)benzyl]-N-cyclopropyl-3-(difluoromethyl)-5-fluoro-1-methyl-1H-pyrazole-4-carboxamide], the pest or weed control at 0.25 ppm in test [1] (Table 4c) amounted to 29%; in [2] (Alternaria solani, 72 h, Table 3b, 0.25 ppm, read-out: Efficacy in % found) it was 59%; in test [7], 0%; in test [10] (setting [19]), 0%. The pest or weed control at 0.5 ppm in [2] (setting [18]) worked out at 63%; in [7], 0%; in test [10] (Venturia inaequalis, 240 h, read-out: Efficacy in % found, Table 2a), 0%. Moreover, the pest or weed control at 10 ppm in test [4] (read-out: Efficacy in % found, Table 8c) was 63%; in test [6] (Blumeria graminis, 168 h, Table 6b, read-out: Efficacy in % found), 13%; in [8], 57%; in test [9] (setting [16]), 44%. Besides, the “Efficacy in % found” value came out at 8% in test [5] (Table 5a, 2.5 ppm a.i.); 67% in [11] (application rate 10 ppm a.i.); 0% in test [12] (Table 7b, 10 ppm a.i.); 0% in test [12] (Table 7b, 40 ppm a.i.). The pest or weed control at 40 ppm in test [6] (Blumeria graminis, 168 h, Table 6b, 40 ppm a.i., read-out: Efficacy in % found) was determined as 70%; in test [6] (Blumeria graminis, 168 h, Table 6c, 40 ppm, read-out: Efficacy in % found) it was 75%; in test [9] (setting [17]), 89%. The pest or weed control at 100 ppm in [7] is 25%.

For the compound `Cn1nc(C(F)F)c(C(=O)N(Cc2c(Cl)cccc2C(F)(F)F)C2CC2)c1F` [A17, N-[2-chloro-6-(trifluoromethyl)benzyl]-N-cyclopropyl-3-(difluoromethyl)-5-fluoro-1-methyl-1H-pyrazole-4-carboxamide], the pest or weed control at 0.5 ppm in test [1] (Table 4a) turned out to be 74%; in test [2] (setting [18]), 71%; in test [2] (Alternaria solani, 72 h, Table 3c, read-out: Efficacy in % found), 32%; in test [7], 0%. Also, the pest or weed control at 0.25 ppm in [1] (Table 4b) was 71%; in test [7] it was 0%; in [10] (setting [19]) it was 8%. Besides, the pest or weed control at 10 ppm in [3] (Parastagonospora nodorum, 192 h, Table 9e, 10 ppm a.i., read-out: Efficacy in % found) was found to be 29%; in test [3] (setting [13]) it was 33%; in test [4] (read-out: Efficacy in % found, Table 8d), 43%; in [6] (Blumeria graminis, 168 h, Table 6a, read-out: Efficacy in % found) it was 95%. In addition, the pest or weed control at 40 ppm in [3] (setting [14]) and in test [9] (setting [17]) was 67% in each case. Also, the pest or weed control at 100 ppm in test [7] was 30%. Moreover, the “Efficacy in % found” value in [11] (application rate 10 ppm a.i.) is 86% and 89%; in test [12] (Table 7a, 10 ppm a.i.), 50%.

Take `CC(C1CC1)C(O)(Cn1cncn1)c1ccc(Cl)cc1` (stereo not shown) [B1.5, cyproconazole]: in [1] (Table 4c), the pest or weed control at 0.5 ppm was 30%. The pest or weed control at 80 ppm in [3] (Parastagonospora nodorum, 192 h, Table 9a, 80 ppm a.i., read-out: Efficacy in % found) was 29%. In addition, the pest or weed control at 20 ppm in test [6] (Blumeria graminis, 168 h, Table 6d, 20 ppm, read-out: Efficacy in % found) turned out to be 78%; in test [8] (application rate 20 ppm a.i.), 29%; in test [9] (Puccinia triticina, 192 h, application rate 20 ppm a.i., read-out: Efficacy in % found), 56%. Moreover, the “Efficacy in % found” value in [11] (application rate 20 ppm a.i.) is reported as 0%.

Consider `CC1(C(=O)Nc2ccc(O)c(Cl)c2Cl)CCCCC1` [B1.16, fenhexamid], for which, in test [2] (Alternaria solani, 72 h, Table 3b, 50 ppm, read-out: Efficacy in % found), the pest or weed control at 50 ppm is 22%. For the same compound, the “Efficacy in % found” value amounted to 51% in test [5] (Table 5a, 2.5 ppm a.i.) and 0% in test [5] (Table 5b, 2 ppm a.i.).

Consider `CC(C)C1C2CCC1c1c(NC(=O)c3cn(C)nc3C(F)F)cccc12` (stereo not drawn) [B2.11, isopyrazam (syn + anti)], for which the “Efficacy in % found” value in test [3] (Table 9b, 10 ppm a.i.) was determined as 0%; in [11] (application rate 10 ppm a.i.), 0%; in test [12] (Table 7b, 40 ppm a.i.), 0%; in test [9] (application rate 10 ppm a.i.) it was 33%; in test [10] (Table 2d, 0.25 ppm a.i.) it was 88%.

Turning to `CON=C(C(=O)OC)c1ccccc1CON=C(C)c1cccc(C(F)(F)F)c1` [B3.22, trifloxystrobin], the pest or weed control at 1 ppm in test [1] (Table 4c, 1 ppm a.i.) is 21%. For the same compound, the pest or weed control at 10 ppm in test [3] (setting [13]) is 40%; in test [8], 13%. Further, the pest or weed control at 40 ppm in [3] (setting [14]) was determined as 57%. The “Efficacy in % found” value stood at 0% in test [12] (Table 7a, 10 ppm a.i.) and 25% in [12] (Table 7b, 10 ppm a.i.).

fludioxonil [B13.3]: the “Efficacy in % found” value turned out to be 53% in [5] (Table 5a, 2.5 ppm a.i.); 0% in [5] (Table 5b, 0.5 ppm a.i.); 0% in test [6] (Table 6e, 100 ppm a.i.); 13% in test [6] (Table 6f, 400 ppm a.i.); 0% in test [9] (application rate 400 ppm a.i.).

For pyrimethanil [B7.7], the “Efficacy in % found” value is 26% in [2] (Table 3b, 25 ppm); 24% in [5] (Table 5b, 10 ppm a.i.); 11% in test [9] (application rate 400 ppm a.i.).
